Assay results published in patent publication US4613610A, “Cholesterol biosynthesis inhibiting pyrazole analogs of mevalonolactone and its derivatives” (Sandoz Pharmaceuticals Corp., priority 1985, dated 1986).
Read-outs that look alike come from different tables or passages of the source.

Tests used:
HMG-CoA reductase = molecular target: T1, HMG-CoA reductase (Rattus norvegicus, UniProt P51639); assay: Test A. In Vitro Microsomal Assay of HMG-CoA Reductase Inhibition; format: biochemical, rat (male Sprague-Dawley rat liver microsomes)
T1 construct: the microsomes are the source of the HMG-CoA reductase enzyme; from tissue; host or cells: liver microsomes of male Sprague-Dawley rats (150-225 g)
T1 sequence (P51639 1-887): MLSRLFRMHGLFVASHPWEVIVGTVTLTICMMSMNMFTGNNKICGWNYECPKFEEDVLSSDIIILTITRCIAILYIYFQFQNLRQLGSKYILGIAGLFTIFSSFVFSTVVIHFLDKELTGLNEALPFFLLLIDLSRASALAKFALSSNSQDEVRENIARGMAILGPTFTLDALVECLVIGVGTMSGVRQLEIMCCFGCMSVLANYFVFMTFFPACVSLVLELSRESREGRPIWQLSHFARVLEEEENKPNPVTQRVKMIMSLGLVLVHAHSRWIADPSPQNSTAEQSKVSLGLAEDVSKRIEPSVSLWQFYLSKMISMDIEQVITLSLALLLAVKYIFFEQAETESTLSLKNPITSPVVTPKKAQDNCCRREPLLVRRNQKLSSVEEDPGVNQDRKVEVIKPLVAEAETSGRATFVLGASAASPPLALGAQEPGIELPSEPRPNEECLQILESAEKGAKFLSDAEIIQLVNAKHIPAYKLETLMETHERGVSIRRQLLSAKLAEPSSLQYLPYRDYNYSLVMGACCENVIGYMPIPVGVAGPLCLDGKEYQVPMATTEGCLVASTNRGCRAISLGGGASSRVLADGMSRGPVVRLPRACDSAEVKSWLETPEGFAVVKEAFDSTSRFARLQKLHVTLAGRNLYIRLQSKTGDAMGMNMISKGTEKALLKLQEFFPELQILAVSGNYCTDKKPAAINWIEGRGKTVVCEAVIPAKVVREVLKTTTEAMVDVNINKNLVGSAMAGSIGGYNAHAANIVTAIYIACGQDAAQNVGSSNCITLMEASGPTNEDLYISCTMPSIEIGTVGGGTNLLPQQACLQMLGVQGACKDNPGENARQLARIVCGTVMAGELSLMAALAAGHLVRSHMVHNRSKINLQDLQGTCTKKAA
Protocol: Test A. In Vitro Microsomal Assay of HMG-CoA Reductase Inhibition:
200 μl. aliquots (1.08-1.50 mg./ml.) of rat liver microsomal suspensions, freshly prepared from male Sprague-Dawley rats (150-225 g. body weight), in Buffer A with 10 mmol. dithiothreitol are incubated with 10 μl. of a solution of the test substance in dimethylacetamide and assayed for HMG-CoA reductase activity as described in Ackerman et al., J. Lipid Res. 18, 408-413 (1977), the concentration of the test substance in the assay system being 0.0001-2,000 μmolar. In the assay the microsomes are the source of the HMG-CoA reductase enzyme which catalyzes the reduction of HMG-CoA to mevalonate. The assay employs a chloroform extraction to separate the product, [^14 C]mevalonolactone, formed by the HMG-CoA reductase recution of the substrate, [^14 C]HMG-CoA. [^3 H]mevalonolactone is added as an internal reference. Inhibition of HMG-CoA reductase is calculated from the decrease in specific activity ([^14 C/^3 H]mevalonate) of test groups compared to controls.
IC50 is the concentration of the test substance in the assay system calculated or observed to produce a 50% inhibition of HMG-CoA reductase activity.

[1] = test system: 3β-hydroxysterol synthesis (cholesterol biosynthesis); assay: Test B. In Vivo Cholesterol Biosynthesis Inhibition Test; set-up: species or system rat (male Wistar Royal Hart); details: Rattus norvegicus, read-out: ED50 (50% inhibition of 3β-hydroxysterol synthesis)
Protocol: In vivo studies utilize male Wistar Royal Hart rats weighing 150±20 g. which have been kept for 7-10 days on an altered light cycle (6:30 A.M.-6:30 P.M. dark) housed two per cage and fed powdered Purina Rat Chow and water ad libitum. Three hours before the diurnal maximum of cholesterol synthesis at mid-dark, the rats are orally administered the test substance (e.g., 0.01-200 mg./kg. body weight) dissolved or as a suspension in 0.5% carboxymethylcellulose in a volume of 1 ml./100 g. body weight. Controls receive vehicle alone. One hour after receiving the test substance (or the vehicle alone), the rats are injected intraperitoneally with about 25 μCi/100 g. body weight of sodium [1-^14 C]acetate 1-3 mCi/mmol. Two hours after mid-dark, blood samples are obtained under sodium hexobarbitol anesthesia, and the serum is separated by centrifugation.
Serum samples are saponified and neutralized, and the 3β-hydroxysterols are precipitated with digitonin basically as described in Sperry et al., J. Biol. Chem. 187, 97 (1950). The [^14 C]digitonides are then counted by liquid scintillation spectrometry. After correcting for efficiencies, the results are calculted in nCi (nanocuries)of 3β-hydroxysterol formed per 100 ml. of serum. Inhibition of 3β-hydroxysterol synthesis is calculated from the reduction in the nCi of 3β-hydroxysterols formed from test groups compared to controls.
ED50 is the dose of the test substance calculated or observed to produce a 50% inhibition of 3β-hydroxysterol synthesis.

[2] = rat liver microsomal suspensions, test substance 0.0001-2,000 μmolar, calculated or observed, read-out: IC50 (50% inhibition of HMG-CoA reductase activity)
[3] = male rats, oral, in 0.5% carboxymethylcellulose, [1-14C]acetate i.p. 1 h later, serum, calculated or observed

| Structure (SMILES) | IC50 (HMG-CoA reductase; [2]) [nM] | ED50 [1, 3] [mg/kg] | IC50 (HMG-CoA reductase) [nM] | ED50 ([1]; po, 1 h) [mg/kg] |
| --- | --- | --- | --- | --- |
| CC(C)c1c(/C=C/[C@@H]2C[C@@H](O)CC(=O)O2)c(-c2ccc(F)cc2)nn1-c1ccccc1 (relative stereo) [Example 11, (E)-Trans-6-(2'-[3"-(4'"-fluorophenyl)-5"-(1'"-methylethyl)-1"-phenyl-1H-pyrazol-4"-yl]ethenyl)-4-hydroxy-3,4,5,6-tetrahydro-2H-pyran-2-one] | 260 | – | – | – |
| CC[C@H](C)C(=O)O[C@H]1CCC=C2C=C[C@H](C)[C@H](CC[C@@H]3C[C@@H](O)CC(=O)O3)[C@H]21 [Compactin, reference compound] | – | 3.5 | – | – |
| CC(C)n1nc(-c2ccccc2)c(-c2ccc(F)cc2)c1/C=C/[C@@H]1C[C@@H](O)CC(=O)O1 [Example 1, (E)-Trans-6S-(2'-[4"-(4'"-fluorophenyl)-1"-(1'"-methylethyl)-3"-phenyl-1H-pyrazol-5"-yl]ethenyl)-4R-hydroxy-3,4,5,6-tetrahydro-2H-pyran-2-one] | 80 | – | – | – |
| CC(C)n1nc(-c2ccccc2)c(-c2ccc(F)cc2)c1/C=C\[C@@H]1C[C@@H](O)CC(=O)O1 [Example 2, (Z)-Trans-6S-(2'-[4"-(4'"-fluorophenyl)-1"-(1'"-methylethyl)-3"-phenyl-1H-pyrazol-5"-yl]ethenyl)-4R-hydroxy-3,4,5,6-tetrahydro-2H-pyran-2-one] | 103000 | – | – | – |
| CC[C@H](C)C(=O)O[C@H]1C[C@@H](C)C=C2C=C[C@H](C)[C@H](CC[C@@H]3C[C@@H](O)CC(=O)O3)[C@H]21 [Mevinolin, reference compound] | – | – | 140 | 0.41 |

The remaining molecules from weak to strong by IC50 (HMG-CoA reductase; [2]), led by results:

| IC50 (HMG-CoA reductase; [2]) [nM] | Structure (SMILES) | ED50 [1, 3] [mg/kg] | IC50 (HMG-CoA reductase) [nM] | ED50 ([1]; po, 1 h) [mg/kg] |
| --- | --- | --- | --- | --- |
| 60 | CC(C)n1nc(-c2ccccc2)c(-c2ccc(F)cc2)c1/C=C/[C@@H](O)C[C@@H](O)CC(=O)O [Example 3, Sodium erythro-(E)-3R,5S-dihydroxy-7-[4'-(4"-fluorophenyl)-1'-(1"-methylethyl)-3'-phenyl-1H-pyrazol-5'-yl]hept-6-enoate] | 0.05 | – | – |
| 40 | CC(C)n1nc(-c2ccccc2)c(-c2ccc(F)cc2)c1/C=C/[C@@H](O)C[C@@H](O)CC(=O)O (relative stereo) [Example 7, Sodium erythro-(E)-3,5-dihydroxy-7-[4'-(4"-fluorophenyl)-1'-(1"-methylethyl)-3'-phenyl-1H-pyrazol-5'-yl]hept-6-enoate] | 0.06 | – | – |
| 20 | CC(C)c1nn(-c2ccccc2)c(-c2ccc(F)cc2)c1/C=C/[C@@H](O)C[C@@H](O)CC(=O)O (relative stereo) [Example 14, Sodium erythro-(±)-(E)-3,5-dihydroxy-7-[5'-(4"-fluorophenyl)-3'-(1"-methylethyl)-1'-phenyl-1H-pyrazol-4'-yl]hept-6-enoate] | 0.013 | – | – |
